What was measured:
AAI-induced renal damage = experiment: AAI nephrotoxicity in mice (serum BUN, CRE, kidney H&E histopathology); assay type: in vivo, C57BL/6 mice
Text: Mice were pretreated with baicalin for three days.
Figure 2 Effects of baicalin on aristolochic acid I (AAI) nephrotoxicity. Blood samples were collected to obtain serum for the measurement of blood urea nitrogen (BUN) (A) and creatinine (CRE) (B); (C) Kidneys were collected to perform hematoxylin and eosin (H&E) staining. Arrowheads, tubular dilation; stars, tubular necrosis and granular casts. Scale bar, 100 μm.
Male C57BL/6 mice (6–7 weeks old, 20–22 g) were obtained from Shanghai Laboratory Animal Center. All animal experiments were approved by the Shanghai Animal Care and Use Committee (Certificate No. SCXK [Shanghai] 2002-0010). […] Each group received different treatments as defined in Figure 7. Blood and liver tissues were collected and stored at −80 °C until use. Serum blood urea nitrogen (BUN) and creatinine (CRE) were measured by an automatic HITACHI Clinical Analyzer Model 7080 (Hitachi, Tokyo, Japan).
Kidneys were collected at the indicated time points and fixed in 10% formalin solution before being embedded in paraffin for sectioning into 5-μm-thick sections. Sections were stained with hematoxylin and eosin (H&E) using standard pathology procedures and evaluated by a pathologist as described previously.

[1] = Pharmacokinetics of AAI and AAIa in mouse plasma (HPLC); assay type: in vivo, C57BL/6 mice; settings: for AUC / Cmax / Tmax / t1/2: AAI in mouse plasma
Text: AAIa is the major metabolite of AAI oxidative metabolism by CYP1A. We studied the pharmacokinetics of AAI and its metabolites in vivo. […] Simultaneously, the level of AAIa, the major metabolite of AAI, was higher in the plasma of the baicalin-pretreated group than that in the AAI group (Figure 3B).
(§1) Figure 3 Levels of AAI and its major metabolite AAIa in the plasma, liver, and kidney. Blood samples were collected from mice at the indicated time points after AAI injection. Plasma levels of AAI (A) and AAIa (B) were measured by high-performance liquid chromatography (HPLC); Tissue samples from mice were collected at 30 min after AAI injection to determine the levels of AAI (C) and AAIa (D).
(§2) Blood samples (40 μL each) were collected in heparin-coated capillaries and mixed with 50 μL saline. The samples were spun at 3000× g for 10 min at 4 °C. Tissue samples were homogenized in saline and spun at 14,000× g for 10 min, and the supernatants were then mixed with 100 μg/mL (final concentration) indomethacin (internal standard, IS) and 2 volumes of methanol and spun again at 14,000× g for 5 min to remove precipitated proteins. Aliquots of the final supernatants were analyzed and quantified for the levels of AAI and its metabolite AAIa by high-performance liquid chromatography (HPLC), as described below.
The quantification of AAI and its metabolite AAIa was carried out with a Waters 9625 HPLC system (Sunnyvale, CA, USA). For AAI, the linear ranges of the calibration curves were 0–100 μg/mL in the plasma, liver, and kidney, the regression equations were y = 32.186x + 1.1609 (r^2 = 0.9992), y = 38.261x − 1.2753 (r^2 = 0.9688), and y = 80.334x + 1.7436 (r^2 = 0.9987), respectively, where y is the peak area and x is the concentration of the analyte. The identity of AAIa was confirmed with synthesized standards provided by Minghua Xu (Shanghai Institute of Materia Medica, Shanghai, China).

[2] = tested on: X1 (+1 to −2867 of CYP1A1) segment of the CYP1A promoter; experiment: Luciferase reporter assay pGL4.10-X1 in HepG2 cells; assay type: cell-based, human; settings: baicalin 1, 10 or 50 μM, BNF 50 μM, normalized to renilla luciferase
Text: (§3) Two pGL4.10 luciferase plasmids containing X1 (+1 to −2867 of CYP1A1) and X2 (−21,148 to −24,409 of CYP1A1; Figure 6A) segments were transfected into HepG2 cells to investigate the effects of baicalin.
(§4) Figure 6 Effects of baicalin on the AhR-mediated activation of different segments of the CYP1A promoter in HepG2 cells. (A) Location of two insert segments, X1 and X2; and (B) Effects of baicalin and BNF on the luciferase activity of pGL4.10-X1; (C) Effects of baicalin and BNF on the luciferase activity of pGL4.10-X2. Luciferase activity was determined by firefly luciferase assay with data normalized to renilla luciferase activity. The results are expressed as the activity in drug treatment groups relative to that of the vehicle control. Each value is expressed as the mean ± SD. * p < 0.05, ** p < 0.01, *** p < 0.001 versus the plasmid only group. […]
(§5) HepG2 cells were seeded at a density of 1.0 × 10^5 cells/mL in 6-well plates to achieve ~50% confluence the next day and were then transfected with pGL4.10-X1/2 plasmids using Lipofectamine 2000 (Invitrogen). […] Thereafter, cells were collected and further assayed for firefly luciferase activity, which was normalized to the activity of renilla luciferase, using the Dual-Luciferase Reporter Assay System (Promega, Madison, WI, USA) and a Biotek Synergy 4 Microplate reader (Biotek, Winooski, VT, USA). […]

[3] = tested on: X2 (−21,148 to −24,409 of CYP1A1) segment of the CYP1A promoter; experiment: Luciferase reporter assay pGL4.10-X2 in HepG2 cells; assay type: cell-based, human; settings: baicalin 1, 10 or 50 μM, BNF 50 μM, normalized to renilla luciferase
Text: as §3, §4, §5

CYP1A2 [4] = assay type: cell-based, human; settings: Fa2N-4 cells, DMF 2 μM with baicalin, 24 h
Experimental: (§6) The immortalized hepatocyte cell line Fa2N-4 (Xenotech, Kansas City, KS, USA) was maintained in BEGM Bullet kit medium with 10% heat inactivated fetal bovine serum (FBS) and 1% antibiotic-antimycotic solution (Invitrogen, Carlsbad, CA, USA) at 37 °C in a humidified atmosphere of 95% air and 5% CO2. Fa2N-4 cells were plated in 6-well plates to achieve ~80% confluence next day. Cells were collected at 24 h after treatment with vehicle or baicalin (0–100 μM) in the presence or absence of 3ʹ,4ʹ-DMF (2 μM).

CYP1A1 [5] = experiment: CYP1A1 mRNA and protein expression in Fa2N-4 cells (real-time PCR, Western blot); assay type: cell-based, human; settings: 24 h
Experimental: as §6

CYP1A2 [6] = settings: mice
[7] = Levels of AAI and AAIa in mouse liver and kidney (HPLC); assay type: in vivo, C57BL/6 mice; settings: baicalin pretreatment; 30 min after AAI 10 mg/kg i.p.; versus AAI group
Experimental: as §1
To examine whether the change in pharmacokinetics of AAI upon baicalin pretreatment was due to changes in the tissue distribution of AAI, the levels of AAI and AAIa in the livers and kidneys were measured by HPLC.
as §2
The quantification of AAI and its metabolite AAIa was carried out with a Waters 9625 HPLC system (Sunnyvale, CA, USA). […]

CYP1A1 [8] = experiment: Hepatic CYP1A1 mRNA and protein expression in mice; assay type: in vivo, mouse; settings: baicalin 80 mg/kg daily for 3 days
CYP1A2 [9] = experiment: Screening of herbal compounds for CYP1A2 induction in Fa2N-4 cells (mRNA, real-time PCR); assay type: cell-based, human; settings: 10 μM, compared among seven herbal compounds
Experimental: To screen CYP1A2 inducers, Fa2N-4 cells, a non-tumorigenic immortalized human hepatic cell line, were treated with seven different herbal compounds.
Figure 1 Screening of herbal compounds for their activities in inducing CYP1A2 in Fa2N-4 cells. Cells were pre-treated with candidate compounds at 10 μM. CYP1A2 mRNA was quantified by real-time PCR. con: control (negative control); 1: omeprazole (positive control); 2: kaempferide; 3: catalpol; 4: isorhamnetin; 5: ferulic acid; 6: ligustrazine; 7: astragaloside; 8: baicalin. *** p < 0.001 versus the negative control.
as §6

[10] = AAI 10 mg/kg i.p. after baicalin 80 mg/kg daily for 3 days
[11] = AAI 10 mg/kg i.p. after baicalin 160 mg/kg daily for 3 days
[12] = baicalin 80 or 160 mg/kg daily for 3 days, then AAI 10 mg/kg i.p. on day 4, versus AAI only
[13] = baicalin pretreatment, then AAI 10 mg/kg i.p., versus AAI group

For `COc1cccc2c1cc([N+](=O)[O-])c1c(C(=O)O)cc3c(c12)OCO3` [AAI, aristolochic acid I], the “kidney lesions (H&E histopathology)” value (AAI-induced renal damage; AAI 10 mg/kg i.p., seven days after AAI administration) was “extensive tubular necrosis, and tubular dilation”, the AUC [1, 10] was 759.39 ± 23.26 ** min·μg/mL and the Cmax [1, 10] was 4430 ± 240 ng/mL. For the same compound, the Tmax [1, 10] was 10.00 ± 0 min, the t1/2 [1, 10] was 77.96 ± 6.84 min and the AUC [1, 11] was 710.07 ± 33.95 *** min·μg/mL. For the same compound, the Cmax [1, 11] was 3890 ± 430 ng/mL, the Tmax [1, 11] was 9 ± 2.24 min and the t1/2 [1, 11] was 80.83 ± 3.02 min. For the same compound, the AUC ([1]; AAI 10 mg/kg i.p., no baicalin) was 844.96 ± 40.12 µg·min/mL, the Cmax ([1]; AAI 10 mg/kg i.p., no baicalin) was 4990 ± 410 ng/mL and the Tmax ([1]; AAI 10 mg/kg i.p., no baicalin) was 10.00 ± 0 min. The t1/2 ([1]; AAI 10 mg/kg i.p., no baicalin) was 78.68 ± 12.88 min.
With `O=c1cc(-c2ccccc2)oc2ccc3ccccc3c12` [BNF, β-Naphthoflavone, reference compound] the “luciferase activity of pGL4.10-X1 relative to vehicle control” value [2] was “increased the luciferase activity” and the “luciferase activity of pGL4.10-X2 relative to vehicle control” value [3] was “increased the luciferase activity”.
In the case of `COc1ccc(-c2cc(=O)c3ccccc3o2)cc1OC` [DMF, 3ʹ,4ʹ-dimethoxyflavone, reference compound], the “effect on baicalin-induced CYP1A2 expression” value (CYP1A2 [4]) is reported as “abolished” and the “effect on baicalin-induced CYP1A1 expression” value (CYP1A1 [5]; DMF 2 μM with baicalin) is reported as “abolished”.
In the case of `Oc1ccc(/C=C/c2cc(O)cc(O)c2)cc1` [RES, resveratrol, reference compound], the “effect on induction of hepatic CYP1A2 by baicalin” value (CYP1A2 [6]; RES 50 mg/kg with baicalin 80 mg/kg daily for 3 days) is reported as “pronouncedly attenuated”.
In the case of `O=C(O)[C@H]1O[C@@H](Oc2cc3oc(-c4ccccc4)cc(=O)c3c(O)c2O)[C@H](O)[C@@H](O)[C@@H]1O` [baicalin], the “effect of pretreatment on the level of AAI in livers and kidneys” value [7] is reported as “reduced levels”, the “effect of pretreatment on the level of AAIa in livers and kidneys” value [7] is reported as “reduced levels” and the “blood urea nitrogen (BUN) induced by AAI” value (AAI-induced renal damage; [12]) is reported as “significantly reduced”. For the same compound, the “creatinine (CRE) induced by AAI” value (AAI-induced renal damage; [12]) was “significantly reduced”, the “kidney lesions (H&E histopathology)” value (AAI-induced renal damage; baicalin pretreatment for 3 days, then AAI 10 mg/kg i.p., versus AAI group) was “fewer lesions” and the “effect of pretreatment on the level of AAI in mice (plasma, AUC)” value [1, 13] was “markedly decreased”. The “effect of pretreatment on the level of AAIa in the plasma” value [1, 13] was “higher”, the “luciferase activity of pGL4.10-X1 relative to vehicle control” value [2] was “increased the luciferase activity” and the “luciferase activity of pGL4.10-X2 relative to vehicle control” value [3] was “increased the luciferase activity”. For the same compound, the “CYP1A1 expression in the liver at mRNA and protein level” value (CYP1A1 [8]) was “pronouncedly increased”, the “CYP1A2 gene expression at the mRNA level (induction)” value (CYP1A2 [9]) was “most potent compound in inducing CYP1A2 gene expression” and the “CYP1A1 expression at mRNA and protein level” value (CYP1A1 [5]; 100 μM) was “increased”. The CYP1A1 expression (CYP1A1 [5]; 10 or 50 μM) was “relatively mild effect” and the “CYP1A2 expression in the liver at mRNA and protein level” value (CYP1A2 [6]; baicalin 80 mg/kg daily for 3 days) was “pronouncedly increased”.

Source: PMC4519959, “Baicalin Protects Mice from Aristolochic Acid I-Induced Kidney Injury by Induction of CYP1A through the Aromatic Hydrocarbon Receptor” (International Journal of Molecular Sciences, 2015)
